The source of these data is patent US5135847A, “Substrate composition for alkaline phosphatase and method for assay using same” (Becton, Dickinson and Company, priority 1988, dated 1992).

Data set [1] concerns bovine liver alkaline phosphatase. Description: Accelerated stability in various pH 9.8 buffers at 45° C.; functional inhibitor measured by inhibition of bovine liver alkaline phosphatase. Format: physicochemical. As to conditions: for Percent of Functional Levamisole Remaining: 45° C., Day 0. The method, then:
Various buffers were prepared at 100 mM concentrations, containing 1 mM magnesium chloride, and adjusted to pH 9.8. […] (accelerated decomposition study). […] Bovine liver AP was added and the reaction kinetics were followed at 405 nm.

For data set [2] the test system is unchanged. The data set can be described thus: Potency as alkaline phosphatase inhibitor relative to levamisole. Format: biochemical.
The conditions of data set [3]: pH 7.9 versus pH 2; cited from earlier work.
Data set [4] deals with AP from several mammalian tissue types. As to conditions: cited from earlier work.
The subject of the next data set is AP from the intestine. The following applies: intestinal versus nonintestinal AP; cited from earlier work.

Consider `Brc1ccc([C@H]2CN3CCSC3=N2)cc1` [p-bromolevamisole], for which the “Percent of Functional Levamisole Remaining” value turned out to be 100% in data set [1] (AMP buffer, pH 9.8, 0.1 mM p-bromolevamisole); 100% in data set [1] (AMPD buffer, pH 9.8, 0.1 mM p-bromolevamisole); 100% in data set [1] (Carbonate buffer, pH 9.8, 0.1 mM p-bromolevamisole); 100% in data set [1] (Diethanolamine buffer, pH 9.8, 0.1 mM p-bromolevamisole); 100% in data set [1] (Glycine buffer, pH 9.8, 0.1 mM p-bromolevamisole); 100% in data set [1] (Triethanolamine buffer, pH 9.8, 0.1 mM p-bromolevamisole). Besides, the “decomposition compared with the parent compound (levamisole)” value in data set [1] (pH 9.8, 45° C.) is given as “quite a bit faster”. The “more potent than levamisole” value in data set [2] is “approximately 10 fold”.

Take `c1ccc([C@H]2CN3CCSC3=N2)cc1` [levamisole, (-)2,3,5,6-tetrahydro-6-phenylimidazo[1,2-b]thiazole]: the “Percent of Functional Levamisole Remaining” value in data set [1] (AMP buffer 100 mM, 1 mM magnesium chloride, pH 9.8, 1 mM levamisole) is 100%; in data set [1] (AMPD buffer 100 mM, 1 mM magnesium chloride, pH 9.8, 1 mM levamisole), 100%; in data set [1] (Carbonate buffer 100 mM, 1 mM magnesium chloride, pH 9.8, 1 mM levamisole), 100%; in data set [1] (Diethanolamine buffer 100 mM, 1 mM magnesium chloride, pH 9.8, 1 mM levamisole), 100%; in data set [1] (Glycine buffer 100 mM, 1 mM magnesium chloride, pH 9.8, 1 mM levamisole) it was 100%; in data set [1] (Triethanolamine buffer 100 mM, 1 mM magnesium chloride, pH 9.8, 1 mM levamisole) it was 100%. Also, the “stability in AMPD and particularly in AMP compared with other buffers” value in data set [1] (pH 9.8, 45° C.) was “substantially greater”. The “decomposed faster at pH 7.9 than at pH 2” value in data set [3] is on record as 70 times. Besides, the “inhibition of AP from several mammalian tissue types” value in data set [4] is recorded as “potent inhibitor”. Also, in the data set with AP from the intestine, the “less potent toward AP from the intestine than toward AP from several mammalian tissue types” value was “approximately 100 fold”.
